{
  "source": "patent US8247458B2",
  "about": "“Therapeutic agent for diabetic neuropathy” (Taiho Pharmaceutical Co., Ltd., priority 2006, dated 2012)",
  "tested_on": "diabetes model rats induced by STZ",
  "test": "von Frey test in streptozotocin-induced diabetic neuropathy model rats",
  "assay_type": "in vivo, rat",
  "settings": "vs STZ control group; for suppression effect of neuropathy (pain threshold, von Frey test): p value under 0.001%; for analgesic effect (pain threshold, threshold of the escape reaction of limb, von Frey test): first day of the measurement (first dose)",
  "protocol": "By use of male rats with the weight of more than 160 g, 50 mg/kg of streptozotocin (STZ, Sigma-Aldrich Co.) was administered thereto intravenously at the dose of 2 mL/kg to prepare the diabetes model rats induced by STZ (Malcangio M. et al., Pain, 1998). Animals with the blood sugar level of more than 200 mg/dL were adopted as diabetes models. For the measurements of the blood sugar level, the blood (2 μL) collected from the tail vein was measured by use of a measurement chip (Glutest Sensor, Arkray, Inc.) and a portable instrument for measuring blood sugar of Glutest PRO R (Model GT-1661, Arkray, Inc.).\nThe pain threshold was measured by carrying out the von Frey test on both right and left foot pats of the rats by use of Dynamic Planter Aesthesiometer (Model No. 37400, Ugo Basile, Inc.), and its maximum pressure was set to be 30.0 g, and the arriving time to the maximum pressure was set to be 40 seconds. Eight days after the administration of STZ, the individuals with the pain threshold of higher than a certain level were selected and divided into the groups so that the measured pain thresholds might become even in each group. To the diabetes model rats induced by STZ was administered continuously for one week either 30 mg/kg of suplatast tosylate intraperitoneally or 100 mg/kg of the same orally, and the intraperitoneally administered group and the orally administered group were produced respectively. The diabetes model rats induced by STZ to which solvent (distilled water) was administered orally were designated to the STZ control group. Moreover, the animals of no treatment, i.e. no administration of STZ, to which solvent (distilled water) was administered orally were used as the normal control group. On the 1st, 4th and 7th days after the administration, were measured the pain thresholds of the right and left foot pats for each of the group (8 rats/group), and the analgesic effect was estimated by the threshold of the escape reaction of limb (the total of pain threshold value both of the right and left foot pats). The pain thresholds were measured from 1 to 1.5 hours after the administration, respectively. The Student's test, which is a test for every 2 groups, was applied to the significant difference test of the average value, and the significant level were shown by the following indications:\n## (Normal control group vs. STZ control group): p value under 0.001%, and\n** (STZ control group vs. orally administered group or intraperitoneally administered group): p value under 0.001%\nThe orally administered group and the intraperitoneally administered group were compared with the STZ control groups, respectively. Moreover, the STZ control groups were compared with the normal control groups, and the establishments of the diabetes neuropathy model were respectively judged.",
  "data": [
    {"smiles": "CCOCC(O)COc1ccc(NC(=O)CC[S+](C)C)cc1.Cc1ccc(S(=O)(=O)[O-])cc1", "note": "(racemic) [suplatast tosylate, (±)-[2-[4-(3-Ethoxy-2-hydroxypropoxy)phenylcarbamoyl]-ethyl]dimethylsulfonium p-toluenesulfonate]", "values": [
      {"measurement": "suppression effect of neuropathy (pain threshold, von Frey test)", "setting": "30 mg/kg intraperitoneal daily, 4th day", "result": "significant suppression effects of neuropathy"},
      {"measurement": "suppression effect of neuropathy (pain threshold, von Frey test)", "setting": "30 mg/kg intraperitoneal daily, 7th day", "result": "significant suppression effects of neuropathy"},
      {"measurement": "analgesic effect (pain threshold, threshold of the escape reaction of limb, von Frey test)", "setting": "30 mg/kg intraperitoneal", "result": "analgesic effects were not found"},
      {"measurement": "suppression effect of neuropathy (pain threshold, von Frey test)", "setting": "100 mg/kg oral daily, 4th day", "result": "significant suppression effects of neuropathy"},
      {"measurement": "suppression effect of neuropathy (pain threshold, von Frey test)", "setting": "100 mg/kg oral daily, 7th day", "result": "significant suppression effects of neuropathy"},
      {"measurement": "analgesic effect (pain threshold, threshold of the escape reaction of limb, von Frey test)", "setting": "100 mg/kg oral", "result": "analgesic effects were not found"}
    ]}
  ]
}
